In ChEMBL document CHEMBL3393039, “Anthranilic acid derivatives as nuclear receptor modulators--development of novel PPAR selective and dual PPAR/FXR ligands” (Bioorg Med Chem, 2015):
Converted amounts (≈) assume the structure as drawn. The source made the active and inactive calls. No cut-off for these calls is given here.

Experiments:
[1] = target: T1, Peroxisome proliferator-activated receptor delta (Homo sapiens) (UniProt Q03181); assay: Transactivation of Gal4-tagged PPARdelta ligand binding domain (unknown origin) expressed in COS7 cells at 30 uM measured after overnight incubation by luciferase reporter gene assay; type: cell-based; conditions: COS-7
T1 sequence (whole entry): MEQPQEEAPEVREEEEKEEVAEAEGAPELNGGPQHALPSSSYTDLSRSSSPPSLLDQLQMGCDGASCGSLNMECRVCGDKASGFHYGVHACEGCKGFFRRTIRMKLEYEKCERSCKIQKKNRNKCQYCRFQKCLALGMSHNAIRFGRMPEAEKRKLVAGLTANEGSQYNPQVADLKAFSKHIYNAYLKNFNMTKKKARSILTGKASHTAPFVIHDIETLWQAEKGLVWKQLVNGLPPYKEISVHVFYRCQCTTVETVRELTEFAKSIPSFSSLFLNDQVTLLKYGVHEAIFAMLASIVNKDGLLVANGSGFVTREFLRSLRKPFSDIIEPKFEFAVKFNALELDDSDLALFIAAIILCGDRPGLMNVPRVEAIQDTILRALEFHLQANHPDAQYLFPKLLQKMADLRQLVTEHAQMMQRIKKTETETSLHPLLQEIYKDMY

[2] = target: T2, Peroxisome proliferator-activated receptor gamma (Homo sapiens, UniProt P37231); assay: Transactivation of Gal4-tagged PPARgamma ligand binding domain (unknown origin) expressed in COS7 cells measured after overnight incubation by luciferase reporter gene assay; type: cell-based, COS-7
T2 sequence (P37231 whole entry): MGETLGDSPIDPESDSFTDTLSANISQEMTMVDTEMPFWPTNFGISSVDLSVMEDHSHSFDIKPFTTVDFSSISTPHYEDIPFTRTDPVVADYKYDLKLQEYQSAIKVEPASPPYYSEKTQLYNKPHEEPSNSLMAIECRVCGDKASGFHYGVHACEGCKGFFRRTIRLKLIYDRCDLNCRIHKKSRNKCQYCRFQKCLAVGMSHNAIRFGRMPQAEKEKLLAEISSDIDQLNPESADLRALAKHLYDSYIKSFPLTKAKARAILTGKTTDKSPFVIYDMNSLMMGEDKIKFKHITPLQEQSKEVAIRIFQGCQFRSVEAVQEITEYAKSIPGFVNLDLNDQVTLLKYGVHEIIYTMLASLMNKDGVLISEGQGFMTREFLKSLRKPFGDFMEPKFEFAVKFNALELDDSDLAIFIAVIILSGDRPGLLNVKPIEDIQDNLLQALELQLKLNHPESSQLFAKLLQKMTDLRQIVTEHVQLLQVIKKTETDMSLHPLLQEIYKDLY

[3] = target: T3, Peroxisome proliferator-activated receptor gamma (Homo sapiens) (UniProt P37231); assay: Transactivation of Gal4-tagged PPARgamma ligand binding domain (unknown origin) expressed in COS7 cells measured after overnight incubation by luciferase reporter gene assay relative to piaglitazone; type: cell-based; conditions: Chlorocebus aethiops; COS-7
T3 sequence (whole entry): T2 sequence (P37231 whole entry)

[4] = target: T4, Peroxisome proliferator-activated receptor alpha (Homo sapiens) (UniProt Q07869); assay: Transactivation of Gal4-tagged PPARalpha ligand binding domain (unknown origin) expressed in COS7 cells at 10 uM measured after overnight incubation by luciferase reporter gene assay; type: cell-based; conditions: COS-7
T4 sequence (whole entry): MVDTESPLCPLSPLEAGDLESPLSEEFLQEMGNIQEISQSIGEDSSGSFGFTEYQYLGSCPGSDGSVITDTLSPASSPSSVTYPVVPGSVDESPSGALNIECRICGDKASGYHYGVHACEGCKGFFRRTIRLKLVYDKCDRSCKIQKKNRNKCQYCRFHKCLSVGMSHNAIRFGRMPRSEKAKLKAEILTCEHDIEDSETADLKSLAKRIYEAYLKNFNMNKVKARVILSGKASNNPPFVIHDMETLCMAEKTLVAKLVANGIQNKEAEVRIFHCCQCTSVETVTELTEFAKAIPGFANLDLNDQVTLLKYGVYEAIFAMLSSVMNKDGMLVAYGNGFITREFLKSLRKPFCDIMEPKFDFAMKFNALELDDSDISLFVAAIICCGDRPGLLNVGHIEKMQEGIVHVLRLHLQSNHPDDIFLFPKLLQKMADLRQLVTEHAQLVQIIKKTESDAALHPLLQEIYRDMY

[5] = target: T5, Bile acid receptor (Homo sapiens) (UniProt Q96RI1); assay: Antagonist activity against human FXR expressed in human HeLa cells incubated for 24 hrs by luciferase reporter gene assay; type: cell-based
T5 sequence (whole entry): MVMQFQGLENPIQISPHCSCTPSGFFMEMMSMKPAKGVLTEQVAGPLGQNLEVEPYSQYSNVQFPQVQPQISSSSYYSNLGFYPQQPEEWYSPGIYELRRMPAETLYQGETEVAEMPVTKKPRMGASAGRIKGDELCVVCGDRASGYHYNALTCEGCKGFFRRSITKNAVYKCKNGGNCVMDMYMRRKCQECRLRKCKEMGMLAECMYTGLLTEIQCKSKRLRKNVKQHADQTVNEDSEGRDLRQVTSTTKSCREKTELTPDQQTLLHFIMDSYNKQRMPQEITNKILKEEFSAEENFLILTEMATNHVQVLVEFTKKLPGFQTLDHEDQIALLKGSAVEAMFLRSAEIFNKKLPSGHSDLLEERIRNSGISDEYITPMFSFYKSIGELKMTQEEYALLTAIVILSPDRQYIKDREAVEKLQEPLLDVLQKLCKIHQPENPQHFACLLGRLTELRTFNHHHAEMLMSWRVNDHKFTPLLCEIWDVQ

[6] = Antiproliferative activity against human HepG2 cells assessed as cell viability at 5 uM after 48 hrs by WST1 assay (reference value: 100%); type: cell-based; conditions: read-out: Activity
[7] = Cytotoxic activity against human HepG2 cells assessed as LDH release at 5 uM after 48 hrs by LDH release assay (reference value: 100%)
[8] = Antiproliferative activity against human HepG2 cells assessed as cell viability at 50 uM after 48 hrs by WST1 assay (reference value: 100%); type: cell-based; conditions: read-out: Activity
[9] = Antiproliferative activity against human HepG2 cells assessed as cell viability at 10 uM after 48 hrs by WST1 assay (reference value: 100%); type: cell-based; conditions: read-out: Activity
[10] = target: T4, Peroxisome proliferator-activated receptor alpha (Homo sapiens); assay: Transactivation of Gal4-tagged PPARalpha ligand binding domain (unknown origin) expressed in COS7 cells at 30 uM measured after overnight incubation by luciferase reporter gene assay; type: cell-based; conditions: COS-7
[11] = Cytotoxic activity against human HepG2 cells assessed as LDH release at 30 uM after 48 hrs by LDH release assay (reference value: 100%)
[12] = Cytotoxic activity against human HepG2 cells assessed as LDH release at 10 uM after 48 hrs by LDH release assay (reference value: 100%)
[13] = Aqueous solubility of the compound; type: physicochemical; conditions: aqueous medium (not specified further)
[14] = target: T5, Bile acid receptor (Homo sapiens); assay: Transactivation of human FXR expressed in human HeLa cells at 30 uM incubated for 24 hrs by luciferase reporter gene assay; type: cell-based
Homo sapiens [15] = organism: Homo sapiens; assay: Selectivity index, ratio of EC50 for Gal4-tagged PPARdelta ligand binding domain (unknown origin) to EC50 for human FXR
Homo sapiens [16] = organism: Homo sapiens; assay: Selectivity index, ratio of EC50 for Gal4-tagged PPARgamma ligand binding domain (unknown origin) to EC50 for human FXR
Bile acid receptor = target: T6, Bile acid receptor (Homo sapiens, UniProt Q96RI1); assay: Transactivation of human FXR expressed in human HeLa cells incubated for 24 hrs by luciferase reporter gene assay; type: cell-based
T6 sequence (Q96RI1 whole entry): T5 sequence (whole entry)

[17] = target: T5, Bile acid receptor (Homo sapiens); assay: Transactivation of human FXR expressed in human HeLa cells incubated for 24 hrs by luciferase reporter gene assay relative to GW4064; type: cell-based
Homo sapiens [18] = organism: Homo sapiens; assay: Selectivity index, ratio of EC50 for Gal4-tagged PPARalpha ligand binding domain (unknown origin) to EC50 for human FXR
[19] = target: T3, Peroxisome proliferator-activated receptor gamma (Homo sapiens); assay: Transactivation of Gal4-tagged PPARgamma ligand binding domain (unknown origin) expressed in COS7 cells at 10 uM measured after overnight incubation by luciferase reporter gene assay; type: cell-based; conditions: COS-7
[20] = target: T7, Peroxisome proliferator-activated receptor alpha (Homo sapiens, UniProt Q07869); assay: Transactivation of Gal4-tagged PPARalpha ligand binding domain (unknown origin) expressed in COS7 cells measured after overnight incubation by luciferase reporter gene assay; type: cell-based, COS-7
T7 sequence (Q07869 whole entry): T4 sequence (whole entry)

[21] = target: T1, Peroxisome proliferator-activated receptor delta (Homo sapiens); assay: Transactivation of Gal4-tagged PPARdelta ligand binding domain (unknown origin) expressed in COS7 cells measured after overnight incubation by luciferase reporter gene assay relative to L165,041; type: cell-based; conditions: Chlorocebus aethiops; COS-7
[22] = target: T8, Peroxisome proliferator-activated receptor delta (Homo sapiens, UniProt Q03181); assay: Transactivation of Gal4-tagged PPARdelta ligand binding domain (unknown origin) expressed in COS7 cells measured after overnight incubation by luciferase reporter gene assay; type: cell-based, COS-7
T8 sequence (Q03181 whole entry): T1 sequence (whole entry)

Row | Compound | Activity [1] | EC50 [2] | max activation [3] | max activation [4] | viability at 48 h, 5 µM [6] | LDH release (% cytotoxicity) at 48 h, 5 µM [7] | viability at 48 h, 50 µM [8] | viability at 48 h, 10 µM [9] | LDH release (% cytotoxicity) at 48 h, 30 µM [11] | LDH release (% cytotoxicity) at 48 h, 10 µM [12] | solubility [13] | max activation [17] | max activation [19] | EC50 [20] | other results
1 | CC(C)(C)c1ccc(C(=O)Nc2ccc(Cl)cc2C(=O)Nc2cccc(C(=O)O)c2)cc1 | inactive | 5.4 µM | 132% | 18% | – | – | – | – | – | – | – | – | – | – | inhibition [5]: Active
2 | Cc1ccc(C(=O)O)cc1NC(=O)c1ccccc1NC(=O)c1ccc(C(C)(C)C)cc1 | inactive | 6.3 µM | 163% | – | 95.7% | -1.3% | 72% | 92.2% | 37.3% | 0.7% | 2.6 µM (≈ 1.12 µg/mL) | – | – | – | Activity [10]: inactive; Activity [14]: inactive
3 | CC(C)(C)c1ccc(C(=O)Nc2cc(Cl)ccc2C(=O)Nc2cccc(C(=O)O)c2)cc1 | inactive | 9 µM | 256% | 44% | – | – | – | – | – | – | – | 22% | – | – | Ratio EC50 (Homo sapiens [15]): 100; Ratio EC50 (Homo sapiens [16]): 75; EC50 (Bile acid receptor): 120 nM; Ratio EC50 (Homo sapiens [18]): 100
4 | O=C(O)c1ccc(CNC(=O)c2ccccc2NC(=O)c2ccc3ccccc3c2)cc1 | inactive | – | – | 17% | – | – | – | – | – | – | – | – | 56% | – | –
5 | CCc1ccc(C(=O)Nc2ccccc2C(=O)NCCCC(=O)O)cc1 | inactive | – | – | – | – | – | – | – | – | – | – | – | 39% | 15.7 µM | –
6 | O=C(O)CCCCCNC(=O)c1ccccc1NC(=O)c1ccc2ccccc2c1 | inactive | – | – | 38% | – | – | – | – | – | – | – | – | 40% | – | –
7 | COc1ccc(C(=O)Nc2ccccc2C(=O)Nc2cccc(CC(=O)O)c2)cc1 | – | – | – | 17.3% | – | – | – | – | – | – | – | – | 13.2% | – | max activation [21]: 54%; EC50 [22]: 5.9 µM; Activity [14]: inactive
8 | O=C(O)Cc1ccc(NC(=O)c2ccccc2NC(=O)c2ccc3ccccc3c2)cc1 | inactive | – | – | – | – | – | – | – | – | – | – | – | 25% | – | Activity [10]: inactive
9 | O=C(O)Cc1cccc(NC(=O)c2ccccc2NC(=O)c2ccc(-c3ccccc3)cc2)c1 | – | 2.6 µM | 125% | – | 96.5% | -4.5% | 33.6% | 79.5% | 72.9% | -1% | 1.7 µM (≈ 0.766 µg/mL) | 18.8% | – | 3 µM | max activation [21]: 175%; EC50 (Bile acid receptor): 700 nM; EC50 [22]: 6.4 µM
10 | Cc1ccc(NC(=O)c2ccccc2NC(=O)c2ccc(C(C)(C)C)cc2)cc1C(=O)O | inactive | 5 µM | 98% | – | 106% | -0.1% | 82.5% | 99.6% | 28.4% | 2.2% | 4.9 µM (≈ 2.11 µg/mL) | 22% | – | 0.21 µM | –
